For one assay, the system named is rat osteoblasts. In words: Single osteoblast sensor: response time to chemical analytes. It counts as cell-based. The conditions noted are these: at the concentration printed under each value (EDTA 280 ppm, ethanol 190 ppm, peroxide 25 ppm, pyrethroids 890 ppm), preliminary results.
For assay [1], the system named is single neuron. Nature of the assay: Single neuron sensor: extracellular electrical response to chemical analytes (FFT/WT analysis, signature pattern vector). The conditions noted are these: for Percentage reduction of signal amplitudes from the detection limit to the peak concentration: 5000 ppm to detection limit; for Percentage increase in response time from peak concentration to the sensitivity limits: about 5000 ppm to detection limit; for Response time of a single neuron extracted via WT analysis: at the detection limit; for Detection limit for a single neuron: decrementing concentrations from about 5000 ppm; for Experimentally obtained detection limit (molar): single neuron.
Description: The experiments in Example 2 were conducted on mammalian cells, rat osteoblasts and neurons (18 day embryonic Wistar rat) having highly excitable cell membranes. […] A unique response of each cell type to each agent was determined. […] Additionally, the response of each cell type to a mixture of the four agents was determined in order to simulate the real time field conditions.
(§1) For example, for the experiments described herein, an experimental platform comprising a 5×5 electrode array on a substrate, a silicone chamber, and a measurement system was used. The micrograph of the fabricated electrode array on a substrate is shown in FIG. 1 with a 5×5 platinum electrode array pattern, electrode diameter of 80 μm and with a 200 μm center to center spacing. Two platinum plated leads (6 μm, thick) from each electrode terminated at two separate electrode pads. The dimensions of the electrode pads were 100 μm×120 μm. The electrode array on the substrate was coated with a permeation polyethylamine (PEI) and collagen with a volume of 200 μl (PEI, 1 mg/ml, Collagen 1X, Sigma, St. Louis, Mo.). The electrode array on the substrate with the aqueous coating of the permeation layer was incubated for about 12 hours prior to the experiment at 37 ° C. and 5% CO2.
The cells were separated and positioned over the electrodes by setting up a gradient AC field using an extracellular positioning system, comprising of a pulse generator and micromanipulators. The AC signal from the pulse generator was fed to the electrode pads of the selected electrodes using the micromanipulators. The extracellular recordings from the cells were amplified and recorded on an oscilloscope. The supply and measurement systems are integrated using general-purpose interface bus (GPIB) control and controlled through LabVIEW (National Instruments, Austin, Tex.).
Then fast Fourier transformation (FFT) and wavelet transformation (WT) analysis were used to extract important information from the extracellular action potential (AP) for the neurons. Specific spectrum power vectors (SSPVs) and the relative spectrum power values (RSPVS) were found for osteoblast. Quantitative dose response curves and response times were also obtained for the single cell systems.
Extracellular signals from individual neurons due to the action of a specific chemical analyte may be analyzed further to understand the chemical type and the cellular response relationship. Here, single neuron based sensor's response and its sensitivity is determined by statistical reconstruction and enhancement of the acquired experimental data. Each chemical was characterized by a unique SPV obtained from the integrated processing of the modified extracellular action potential in the frequency domain (FFT) as well as the time domain (WT).
Integrated signal processing yielded an SPV specific to every chemical analyte. The SPV provides unique functional data corresponding to the physiological state of a single neuron due to the action of a particular analyte at a specific concentration. Each SPV comprises of certain frequency states, which are analyte specific and having maximum relative amplitudes that are generated concurrently in the sensing cycle; these correspond to the neuron's modified stable burst rate. Extracellular signal amplitudes greater than about 50 μV are considered to be accurate measures of the cell response due to a specific chemical analyte as the magnitude of signals due to non-specific interactions and noise signals are smaller than this value.

Assay [2] relates to single neuron. The conditions noted are these: estimated theoretically, literature; cited from earlier work.
For assay [3], the system named is single neuron. The conditions noted are these: hydrogen peroxide added after ethanol, both at their detection limits.
Excerpt: The detection limits for individual chemicals act as the basis for determining the concentration of the specific chemical analytes used in cascaded sensing. Addition of the first chemical analyte approaching its sensitivity limit results in the acquisition of modified extracellular potential pertaining to the specific chemical analyte. The use of the chemical analyte close to its detection limit leads to the dissipation as well as metabolization of the chemical analyte within a single sensing cycle (180 seconds) that result in the reduction of the chemical analyte concentration below the detection threshold. […] Administration of the second chemical analyte results in a specific modification based on the latter.
The concentrations of the chemicals used were at their detection limits.

Where “and” joins values, the source holds several entries; their conditions need not be identical. Equal entries are not always repeated.

Description for rat osteoblasts: The experiments in Example 2 were conducted on mammalian cells, rat osteoblasts and neurons (18 day embryonic Wistar rat) having highly excitable cell membranes. […] A unique response of each cell type to each agent was determined. […] Here, two out of four agents are discussed. Additionally, the response of each cell type to a mixture of the four agents was determined in order to simulate the real time field conditions. The results obtained for neurons are discussed.
as §1
The cells were separated and positioned over the electrodes by setting up a gradient AC field using an extracellular positioning system, comprising of a pulse generator and micromanipulators. The AC signal from the pulse generator was fed to the electrode pads of the selected electrodes using the micromanipulators. The extracellular recordings from the cells were amplified and recorded on an oscilloscope. […]
Then fast Fourier transformation (FFT) and wavelet transformation (WT) analysis were used to extract important information from the extracellular action potential (AP) for the neurons. […] Quantitative dose response curves and response times were also obtained for the single cell systems.

`O=C(O)CN(CCN(CC(=O)O)CC(=O)O)CC(=O)O` [EDTA, ethylenediaminetetraacetic acid]: in the assay on rat osteoblasts, the “Response time of osteoblast cells” value was determined as 0.14 sec per. Also, in the assay on single neuron [1] (n=15), the “Percentage reduction of signal amplitudes from the detection limit to the peak concentration” value is given as “about 67%”, the “Percentage increase in response time from peak concentration to the sensitivity limits” value (shortened to “Percentage increase … to the sensitivity limits”) is on record as “about 1.8%”, the “Response time of a single neuron extracted via WT analysis” value was “about 0.27 second” and the “Detection limit for a single neuron” value is “about 180 ppm”. The “Percentage reduction of signal amplitude per 1000 ppm” value (shortened to “Percentage reduction … per 1000 ppm”) with single neuron [1] (n=15) is on record as “about 10.4%±0.11%”. For the same molecule, the “Experimentally obtained detection limit (molar)” value in the assay on single neuron [1] was “about 3.42×10^−13 M”. For the same molecule, the “Lowest single neuron sensitivity, lowest concentration determined by existing methods” value (“Lowest single neuron sensitivity” for short) in the assay on single neuron [2] is reported as “about 15 pM”.
Consider `CCO` [ethanol], for which the “Response time of osteoblast cells” value in the assay with rat osteoblasts is 0.71 sec per. Also, in the assay with single neuron [1] (n=15), the “Percentage reduction of signal amplitudes from the detection limit to the peak concentration” value was “about 52%”, the “Percentage increase … to the sensitivity limits” value was “about 1.6%”, the “Response time of a single neuron extracted via WT analysis” value is listed as “about 0.21 second” and the “Detection limit for a single neuron” value is listed as “about 9 ppm”. For the same molecule, the “Percentage reduction … per 1000 ppm” value in the assay with single neuron [1] (n=15) is on record as “about 8.2%±0.12%”. Also, the “Eigen vectors of the SPV / modified firing frequency (Example 2)” value with single neuron [1] (control burst rate 626 Hz, unchanged for varying concentrations, n=15) turned out to be 314 Hz. In the assay on single neuron [1] (low and high frequency modes, hydrogen peroxide within 30 seconds of addition), the “Frequency of firing of the neuron / eigen values of the SPV (description of FIGS. 4-7)” value was 315 Hz and 627 Hz and 314 Hz and 626 Hz. Further, in the assay on single neuron [1], the “Experimentally obtained detection limit (molar)” value was “about 2.17×10^−12 M”. The “Lowest single neuron sensitivity” value in the assay on single neuron [2] is reported as “about 25 μM”.
As for `OO` [hydrogen peroxide], the “Response time of osteoblast cells” value with rat osteoblasts was found to be 0.42 sec per. In addition, in the assay with single neuron [3], the “High frequency eigen vector after cascaded addition” value is 775 Hz. For the same molecule, in the assay on single neuron [1] (n=15), the “Percentage reduction of signal amplitudes from the detection limit to the peak concentration” value is “about 38%”, the “Percentage increase … to the sensitivity limits” value is reported as “about 1.8%”, the “Response time of a single neuron extracted via WT analysis” value was “about 0.07 second” and the “Detection limit for a single neuron” value was “about 19 ppm”. In addition, the “Percentage reduction … per 1000 ppm” value in the assay on single neuron [1] (n=15) is “about 7.8%±0.14%”. The “Experimentally obtained detection limit (molar)” value in the assay with single neuron [1] was “about 2.94×10^−12 M”. Besides, the “Lowest single neuron sensitivity” value with single neuron [2] was “about 15 nM”.

(Values after patent US20060188904A1, “Biosensors having single reactant components immobilized over single electrodes and methods of making and using thereof” (The Regents of the University of California, priority 2003, published 2006).)
